Here are results for two compounds from US20240316088A1, “Solid composition suitable as a nutritional composition or supplement for animals that suffer from brain related disorders, decline or diseases” (N.V. Nutricia, priority 2022, published 2024).

This series in a line: Hygroscopicity as observed during formulation and processing. It counts as physicochemical.

With `C[N+](C)(C)CCO.[Cl-]` [Choline chloride], the “hygroscopicity (in words)” value is given as “very hygroscopic”.
For the compound `C[N+](C)(C)CCO.O=C([O-])C(O)C(O)C(=O)O` (centres unmarked) [Choline bitartrate], the “hygroscopicity (in words)” value is listed as “much reduced hygroscopicity”.
